Laboratory results published in US20150119267A1, “INHIBITION OF COLONY STIMULATING FACTOR-1 RECEPTOR SIGNALING FOR THE TREATMENT OF BRAIN CANCER” (SLOAN-KETTERING INSTITUTE FOR CANCER RESEARCH, priority 2012, published 2015).

Columns and labels:
[1] = tested on: glioma cells co-cultured with BMDMs; test: Glioma cell / BMDM co-culture cell cycle analysis; type: cell-based, mouse; settings: 670 nM BLZ945, 48 hours
Method: (§1) Media that had been conditioned by glioma tumor cell lines grown in serum free media for 24 hours was passed through 0.22 μm filters to remove cellular debris, and is referred to herein as glioma cell-conditioned media (GCM). GCM was used to stimulate differentiated C57BL/6 WT or β-actin-GFP^+ BMDMs. Control macrophages received fresh media containing 10% FBS and 10 ng/ml recombinant mouse CSF-1.
Following collection of trypsinized co-cultured cells, wells were rinsed in additional media and this volume was collected to ensure harvesting of all macrophages, which adhered tightly to cell culture dishes. Samples were then washed once with FACS buffer, followed by incubation for 10 minutes at room temperature in permeabilizing buffer (10 mM PIPES, 0.1 M NaCl, 2 mM MgCl2, 0.1% Triton X-100, pH 6.8) containing 0.1 mg DAPI (Invitrogen). After acquisition on an LSR II flow cytometer (BD) using a UV laser (350-360 nm), cell cycle status of glioma tumor cells was analyzed using the Flow Jo Dean-Jett-Fox program for cell cycle analysis.

U-87 MG glioma cell line = test: MTT assay, U-87 MG; type: cell-based, human; settings: concentrations up to 6700 nM
Method: U-87 MG (HTB-14) glioma and CRL-2467 microglia cell lines were purchased from ATCC. The U-87 MG cell line was cultured in DMEM+10% FBS. The CRL-2467 cell line was cultured in DMEM+10% FBS with 30 ng/ml recombinant mouse CSF-1.
(§2) Cell growth rate was determined using the MTT cell proliferation kit (Roche). […] Media was changed every 48 hours. BMDM and CRL-2467 cells were supplemented with 10 ng/ml and 30 ng/ml recombinant mouse CSF-1 respectively unless otherwise indicated. Ten μl of MTT labeling reagent was added to each well and then incubated for 4 hours at 37° C., followed by the addition of 100 μl MTT solubilization reagent overnight. The mixture was gently resuspended and absorbance was measured at 595 nm and 750 nm on a SPECTRAMAX 340 pc plate reader (Molecular Devices).

Mrc1/CD206 = Mrc1/CD206 expression in BMDMs (flow cytometry, qRT-PCR); type: cell-based, mouse; settings: in vitro, GCM
Method: as §1
For mouse primary glioma cultures (containing a mixed population of tumor cells, TAMs, astrocytes etc.; see FIG. 15), 1×10^6 cells were cultivated in DMEM+10% FBS in the presence of the CSF-1R inhibitor or DMSO as vehicle (n=6 independently isolated cultures). For BMDMs, 1×10^6 cells were cultivated in DMEM supplemented with recombinant mouse CSF-1 or GCM in the presence of the CSF-1R inhibitor or DMSO as vehicle. After 48 hours, cells were scraped and washed with FACS buffer. Cells were counted and incubated with 1 μl of Fc Block (BD Pharmingen) per 10^6 cells for at least 15 minutes at 4° C. Cells were then stained with CD45 and CD11b antibodies (Table 7) for 10 minutes at 4° C. and washed with FACS buffer. Cells were fixed and permeabilized using the BD Cytofix/Cytoperm™ kit (BD Biosciences) according to the manufacturer's instructions. Subsequently cells were stained with anti-CD206 antibody (Table 7). […]

Ink4a/Arf−/− BMDMs = test: MTT assay, Nestin-Tv-a;Ink4a/Arf−/− BMDMs; type: cell-based, mouse
Method: as §2

established PDG gliomas = test: Short-term 7 day trial on established tumors (MRI, histology); type: in vivo, mouse; settings: for Apoptosis (% CC3+) / Macrophages (% CD68+) / Phagocytic Capacity / Proliferation (% BrdU+Olig2+) / Total DAPI+ Cells / Tumor Cells (% Olig2+) / Vasculature (CD31 MVD): relative to vehicle
PDG tumor cell lines = test: MTT assay, PDG tumor cell lines; type: cell-based, mouse; settings: concentrations up to 6700 nM
Method: For neurosphere formation the cell pellet was resuspended in neurosphere media consisting of mouse NSC Basal Media, NSC proliferation supplements, 10 ng/ml EGF, 20 ng/ml basic-FGF and 1 mg/ml Heparin (Stem Cell Technologies). Fresh media was added every 72 hours for 2 weeks. Primary neurospheres were collected, mechanically disaggregated to a single cell suspension and propagated by serial passaging. To generate glioma cell lines, secondary neurospheres were dissociated to single cell suspensions and cultivated in DMEM+10% FBS as a monolayer (10). Multiple glioma cell lines were derived from independent mice, denoted GBM1-4 herein. Glioma cells were infected with a pBabe-H2B-mCherry construct as described previously (11).
as §2

## CNC(=O)c1cc(Oc2ccc3nc(N[C@@H]4CCCC[C@H]4O)sc3c2)ccn1 [BLZ945]
[1]
  increase in tumor cell cycle entry with GCM-preconditioned BMDMs: blocked
U-87 MG glioma cell line
  U-87 MG human glioma cell proliferation: no effect
Mrc1/CD206
  expression of Mrc1/CD206 in BMDMs: downregulates
Ink4a/Arf−/− BMDMs
  BMDM survival: blocked the survival
Established PDG gliomas; BLZ945, Day 3
  Apoptosis (% CC3+): +17-fold
  Macrophages (% CD68+): +3-fold
  Phagocytic Capacity: +11.5-fold
  Proliferation (% BrdU+Olig2+): −91%
  Total DAPI+ Cells: −72%
  Tumor Cells (% Olig2+): −27%
Established PDG gliomas; BLZ945, Day 7
  Apoptosis (% CC3+): +6-fold
  Macrophages (% CD68+): +2-fold
  Phagocytic Capacity: +5.0-fold
  Proliferation (% BrdU+Olig2+): −67%
  Total DAPI+ Cells: −80%
  Tumor Cells (% Olig2+): −77%
  Vasculature (CD31 MVD): −17%
Established PDG gliomas; BLZ945, Day 7, start 4.5-40 mm3
  Tumor Volume (Day −1 vs Day 6): +0.68%
Established PDG gliomas; BLZ945 Large, Day 3
  Apoptosis (% CC3+): +9-fold
  Macrophages (% CD68+): +2-fold
  Phagocytic Capacity: +7.1-fold
  Proliferation (% BrdU+Olig2+): −98%
  Total DAPI+ Cells: −40%
  Tumor Cells (% Olig2+): −14%
Established PDG gliomas; BLZ945 Large, Day 7
  Apoptosis (% CC3+): +2-fold
  Macrophages (% CD68+): +4-fold
  Phagocytic Capacity: +6.0-fold
  Proliferation (% BrdU+Olig2+): −94%
  Total DAPI+ Cells: −65%
  Tumor Cells (% Olig2+): −73%
  Vasculature (CD31 MVD): −67%
Established PDG gliomas; BLZ945 Large, Day 7, start >40 mm3
  Tumor Volume (Day −1 vs Day 6): −24.3%
Established PDG gliomas; BLZ945 Large, tumors >40 mm3, 7 day trial
  mice with >30% reduction in tumor volume (partial response, RECIST): 6 of 18
Established PDG gliomas; all groups and time points
  reduction of tumor cell proliferation: 67-98%
Established PDG gliomas; already evident at d3
  treated mice exhibiting a tumor response (histology): 100%
Established PDG gliomas; both treatment groups compared to vehicle
  average blood vessel length: decreased
Established PDG gliomas; by d7, both CSF-1R inhibitor groups
  average density of Olig2+ tumor cells, of total cells: < 20%
Established PDG gliomas; compared to vehicle
  TAM numbers in tumors: did not affect TAM numbers
Established PDG gliomas; d3
  increase in apoptosis: 9-to 17 fold
Established PDG gliomas; d7
  Iba1+ macrophages that are CSF-1R+ within the tumor: no significant differences
Established PDG gliomas; day 7, flow cytometry
  immune cell infiltration, comparisons between treatment groups: not significant
Established PDG gliomas; mouse, in vivo
  microglia in adjacent normal brain: evident microglia depletion
  pericyte coverage of the vessels: no significant differences
Established PDG gliomas; starting tumor volume 4.5-40 mm3, 7 day trial
  tumor growth (MRI tumor volume): significantly halted tumor growth
Established PDG gliomas; treated groups
  increase in Olig2+CC3+ cells engulfed by CD11b+ macrophages: 2 to 4 fold
  increased phagocytic capacity of macrophages: 5 to 11.5 fold
PDG tumor cell lines
  proliferation of PDG tumor cell lines: no effect
